# According to US10342806B2, “Hormone treatment for age-related hearing loss-presbycusis” (priority 2014, dated 2019):
# What was measured:
# NKCC1 ubiquitination = test: Immunoprecipitation (autoubiquitination assay) of NKCC1 in HT-29 cells; assay type: cell-based, human; settings: MG132 20 μM 2 h, then ALD 1 μM and/or GSK 650394 50 μM for 24 h
# Protocol: Immunoprecipitation (autoubiquitination assay) and western blot analysis. An autoubiquitination assay was followed (Garg, et al., Effect of the Na—K-2Cl cotransporter NKCC1 on systemic blood pressure and smooth muscle tone. Am J Physiol Heart Circ Physiol 292: H2100-H2105, 2007). Cell extracts were prepared in a modified radioimmunoprecipitation assay 1 (RIPA) buffer, containing the following (in mM): 50 Tris·HCl at pH 7.4, 150 NaCl, 1 EDTA, and 1 dithiothreitol with 1% Nonidet P-40, 0.1% SDS; in a 1:200-diluted protease inhibitor cocktail (Sigma), containing the following (in mM): 1 PMSF, 10 NEM, and 0.1 iodoacetamide Immunoprecipitations were accomplished using a rabbit polyclonal anti-NKCC1 antibody (Cell Signaling). Antibody was bound to lysate with endogenous NKCC1, and then beads were added. Bound proteins were eluted in 1× SDS sample buffer, fractionated on an SDS-polyacrylamide gel, transferred onto a […] membrane (GE Healthcare, Piscataway, N.J.), and immunoblotted with anti-ubiquitin antibody visualized using enhanced chemiluminescence detection reagents (Pears, Shelton Conn.) according to the manufacturer's instructions.
# Immunoblotting with anti-ubiquitin antibody was performed as described above.
# ALD decreases the endogenous ubiquitination of NKCC1 and inhibition of SGK1 activation blocks this downregulation. […]
# iNOS and nNOS = iNOS and nNOS expression in modiolar tissue samples; assay type: in vivo, mouse; settings: young adult, control middle-aged, ALD-treated middle-aged mice
# Protocol: During treatment, blood pressures were measured for the mice at 2 and 4 months after start of treatment. […] Death was confirmed by terminal phlebotomy/exsanguinations and perfusion. Cell lysates were collected and subject to western blot and RT-PCT analysis. The cells were placed in RIPA buffer and sonicated. Protein concentration was measured using the Bradford method. Proteins were separated by SDS-PAGE. The antibodies used for western blot were: anti-iNOS, nNOS and caspase-3 antibodies (Cell Signaling, Cambridge, Mass.). Total cellular RNA was extracted using the RNeasy Plus Mini Kit (74134). For RT-PCR, 10 ng of total cellular RNA was reverse transcribed and complementary DNA was amplified, using the Enhanced Avian HS RT-PCR-100 Kit (Sigma, HSRT20). Primers used for qRT-PCR were as follows: […]
# SGK1 and Nedd4-2 = SGK1 and Nedd4-2 phosphorylation in HT-29 cells, Western blot; assay type: cell-based, human; settings: ALD 1 μM, GSK 650394 50 μM, 9 h
# Protocol: FIG. 25 is a blot showing ALD modulation of NKCC1 via the ALD-SGK1-Nedd4-2 pathway. HT-29 cells were treated with ALD (1 μM) or ALD (1 μM)+GSK650394 (50 μM) for 9 h. Cell lysates were analyzed by Western blot as indicated. Blots are representative of 3 independent experiments. Left: controls. Middle: ALD increases the phosphorylations of SGK1 and Nedd4-2, concomitantly there is an increased induction of NKCC1 protein expression (1st row).
# Western blot. Cell lysates were prepared in RIPA buffer (Pierce 89901; Thermo Scientific, Waltham, Mass.) with protease inhibitor cocktail (78430; Thermo Scientific). Cell samples were homogenized in buffer, followed by centrifugation at 2,000 rpm for 10 min at 4° C. Supernatants were subjected to Western blot analysis by loading 200 μg of protein per lane, after the protein concentrations were determined by Bradford protein assay. Proteins were fractionated by SDS-PAGE gel electrophoresis and transferred to a PVDF blotting membrane (Whatman, Piscataway, N.J.). The blot was incubated with primary antibodies against β-actin and Na—K-2C1 cotransport protein (Cell Signaling, Danvers Mass.); primary antibodies for p-SGK1, SGK1, pNedd4-2, and Nedd4-2 were utilized (concentration 1:1,000). The secondary antibody was horseradish peroxidaseconjugated goat anti-rabbit IgG (1:2,000; Cell Signaling).
smiles,measurement,setting,value
"C[C@]12CCC(=O)C=C1CC[C@@H]1[C@@H]2[C@@H](O)C[C@]2(C=O)[C@@H](C(=O)CO)CC[C@@H]12 [ALD, aldosterone]",endogenous ubiquitinated NKCC1,NKCC1 ubiquitination,significantly reduced
same,iNOS and nNOS gene expression,iNOS and nNOS,no alteration in NOS expression
same,iNOS protein levels,iNOS and nNOS,approximately the same
same,phosphorylation of SGK1 and Nedd4-2,SGK1 and Nedd4-2,increases the phosphorylation of SGK1 and Nedd4-2
